Conditions: Rate of evaporation

CCn1cc[n+](C)c1.O=S(=O)([N-]S(=O)(=O)C(F)(F)F)C(F)(F)F
Liquid
Conditions	vapor or sublimation pressure [kPa]
363.13 K	1.75e-09
368.13 K	2.95e-09
373.13 K	4.91e-09
378.13 K	8.06e-09
383.13 K	1.31e-08
388.13 K	2.09e-08
393.13 K	3.31e-08
398.13 K	5.18e-08
403.13 K	8.01e-08
408.13 K	1.23e-07
413.13 K	1.86e-07
418.13 K	2.78e-07
423.13 K	4.14e-07
428.13 K	6.09e-07
433.13 K	8.88e-07
438.13 K	1.28e-06
443.13 K	1.84e-06
448.13 K	2.62e-06
453.13 K	3.7e-06
458.13 K	5.18e-06
463.13 K	7.2e-06
468.13 K	9.95e-06
473.13 K	1.36e-05
538.13 K	0.00129
543.13 K	0.00168
548.13 K	0.00216
553.13 K	0.00277
558.13 K	0.00355
563.13 K	0.00451
568.13 K	0.00572
573.13 K	0.00722
578.13 K	0.00907
583.13 K	0.0114
588.13 K	0.0142
593.13 K	0.0176
598.13 K	0.0218
603.13 K	0.0269
608.13 K	0.0331
613.13 K	0.0405
618.13 K	0.0495
623.13 K	0.0602
628.13 K	0.0731
633.13 K	0.0885
638.13 K	0.107
643.13 K	0.128
648.13 K	0.154
653.13 K	0.184
658.13 K	0.22
663.13 K	0.261
668.13 K	0.31
673.13 K	0.367
678.13 K	0.433
683.13 K	0.51
688.13 K	0.599
693.13 K	0.703
698.13 K	0.822
703.13 K	0.959
708.13 K	1.12
713.13 K	1.3
718.13 K	1.5
723.13 K	1.74

CCn1cc[n+](C)c1.COS(=O)(=O)[O-] [1-ethyl-3-methylimidazolium methylsulfate]
Liquid
Conditions	vapor or sublimation pressure [kPa]
408.15 K	6.75e-09
410.15 K	8.27e-09
413.15 K	1.12e-08
416.15 K	1.5e-08
420.15 K	2.21e-08
424.15 K	3.24e-08
428.15 K	4.7e-08
432.15 K	6.79e-08
436.15 K	9.72e-08
440.15 K	1.38e-07
444.15 K	1.96e-07
448.15 K	2.75e-07

c1ccc2cc3ccccc3cc2c1 [anthracene]
Crystal
Conditions	vapor or sublimation pressure [kPa]
284.15 K	1.79e-07
289.15 K	3.52e-07
294.15 K	6.77e-07
299.15 K	1.27e-06
304.15 K	2.35e-06
309.15 K	4.25e-06
314.15 K	7.54e-06
319.15 K	1.31e-05
324.15 K	2.25e-05
329.15 K	3.79e-05
334.15 K	6.29e-05
339.15 K	0.000103
344.15 K	0.000166
349.15 K	0.000263
354.15 K	0.000413
359.15 K	0.00064
364.15 K	0.000979
369.15 K	0.00148
374.15 K	0.00222
379.15 K	0.00328
384.15 K	0.00481
389.15 K	0.00698
394.15 K	0.01
399.15 K	0.0143
404.15 K	0.0202
409.15 K	0.0283
414.15 K	0.0393
419.15 K	0.0541
424.15 K	0.0741
429.15 K	0.101
434.15 K	0.136
439.15 K	0.182
444.15 K	0.242
449.15 K	0.319
454.15 K	0.42
459.15 K	0.548
464.15 K	0.712
469.15 K	0.919
474.15 K	1.18
479.15 K	1.51
484.15 K	1.92
489.15 K	2.42
494.15 K	3.05
499.15 K	3.83
504.15 K	4.77
509.15 K	5.93

CCCCCCCCCCCC [dodecane]
Liquid
Conditions	vapor or sublimation pressure [kPa]
284.15 K	0.00421
289.15 K	0.00646
294.15 K	0.00978
299.15 K	0.0146
304.15 K	0.0215
309.15 K	0.0312
314.15 K	0.0449
319.15 K	0.0638
324.15 K	0.0897
329.15 K	0.125
334.15 K	0.172
339.15 K	0.234
344.15 K	0.317
349.15 K	0.425
354.15 K	0.565
359.15 K	0.746
364.15 K	0.976
369.15 K	1.27
374.15 K	1.64
379.15 K	2.1
384.15 K	2.67
389.15 K	3.38
394.15 K	4.25
399.15 K	5.32
404.15 K	6.62
409.15 K	8.19
414.15 K	10.1
419.15 K	12.4
424.15 K	15.1
429.15 K	18.3
434.15 K	22.1
439.15 K	26.6
444.15 K	31.8
449.15 K	38
454.15 K	45.1
459.15 K	53.4
464.15 K	63
469.15 K	74.1
474.15 K	86.8
479.15 K	101
484.15 K	118
489.15 K	137
494.15 K	158
499.15 K	183
504.15 K	210
509.15 K	241

CCCCCCCCCCCCCCCC [hexadecane]
Liquid
Conditions	vapor or sublimation pressure [kPa]
284.15 K	6.01e-05
289.15 K	0.000102
294.15 K	0.000168
299.15 K	0.000274
304.15 K	0.00044
309.15 K	0.000696
314.15 K	0.00108
319.15 K	0.00166
324.15 K	0.00252
329.15 K	0.00377
334.15 K	0.00558
339.15 K	0.00816
344.15 K	0.0118
349.15 K	0.0169
354.15 K	0.0239
359.15 K	0.0335
364.15 K	0.0465
369.15 K	0.0641
374.15 K	0.0875
379.15 K	0.119
384.15 K	0.159
389.15 K	0.212
394.15 K	0.281
399.15 K	0.369
404.15 K	0.482
409.15 K	0.626
414.15 K	0.806
419.15 K	1.03
424.15 K	1.32
429.15 K	1.67
434.15 K	2.1
439.15 K	2.63
444.15 K	3.28
449.15 K	4.07
454.15 K	5.02
459.15 K	6.18
464.15 K	7.56
469.15 K	9.21
474.15 K	11.2
479.15 K	13.5
484.15 K	16.3
489.15 K	19.5
494.15 K	23.3
499.15 K	27.7
504.15 K	32.9
509.15 K	38.9

From the NIST ThermoML archive (doi:10.1016/j.tca.2015.03.020)
